In ChEMBL document CHEMBL1201862, “PubChem BioAssay data set” (2004):
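Each compound was tested at five concentrations against cells in 96-well plates for 48 hours. GI50 marks 50% less growth.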 The source made the active and inactive calls. Cut-off read from the data, not from the text of the source: active = GI50 up to about 1.1 µM and inactive = higher. Residues, ends and D or L forms follow the SMILES beside them. Groups on a side chain read outwards from the residue. *: point of attachment. Cbz = O=C(OCc1ccccc1)*; Boc = CC(C)(C)OC(=O)*

How the values were obtained:
Test in all cases: growth of human tumour cells (NCI), 48 h
[1] = system: OVCAR-5
[2] = system: T47D
[3] = system: HCC 2998
[4] = system: LOX IMVI
[5] = system: EKVX
[6] = system: MCF7
[7] = system: SNB-19
[8] = system: SF-295
[9] = system: HCT-116
[10] = system: RXF 393
[11] = system: ACHN
[12] = system: MDA-MB-435
[13] = system: A498
[14] = system: MDA-N
[15] = system: M14
[16] = system: MDA-MB-231
[17] = system: UACC-257
[18] = system: SW-620
[19] = system: OVCAR-4

Compound | GI50 [1] | GI50 [2] | GI50 [3] | GI50 [4] | GI50 [5] | GI50 [6] | GI50 [7] | GI50 [8] | GI50 [9] | GI50 [10] | GI50 [11] | GI50 [12] | GI50 [13] | GI50 [14] | GI50 [15] | GI50 [16] | GI50 [17] | GI50 [18] | GI50 [19]
CC1C(NNc2ccccc2)Oc2cc3c(cc2C1c1ccccc1O)OCO3 (stereo not drawn) | 4.61 µM (inactive) | 2.77 µM (inactive) | 4.56 µM (inactive) | 12.5 µM (inactive) | 10.9 µM (inactive) | 3.94 µM (inactive) | 14.3 µM (inactive) | 0.632 µM (active) | 4.69 µM (inactive) | 15.7 µM (inactive) | 0.962 µM (active) | 0.946 µM (active) | 15.7 µM (inactive) | 4.06 µM (inactive) | 1.93 µM (inactive) | 13.4 µM (inactive) | 6.89 µM (inactive) | 13.7 µM (inactive) | –
OCCCN=C1CCCCC1 | > 100 µM (inactive) | > 100 µM (inactive) | – | > 100 µM (inactive) | > 100 µM (inactive) | > 100 µM (inactive) | > 100 µM (inactive) | > 100 µM (inactive) | > 100 µM (inactive) | > 100 µM (inactive) | > 100 µM (inactive) | > 100 µM (inactive) | > 100 µM (inactive) | > 100 µM (inactive) | > 100 µM (inactive) | > 100 µM (inactive) | > 100 µM (inactive) | > 100 µM (inactive) | > 100 µM (inactive)
O=c1[nH]c(Nc2cccc(C(F)(F)F)c2)nc2[nH]cnc12 | > 100 µM (inactive) | > 100 µM (inactive) | > 100 µM (inactive) | > 100 µM (inactive) | > 100 µM (inactive) | > 100 µM (inactive) | > 100 µM (inactive) | > 100 µM (inactive) | 80 µM (inactive) | > 100 µM (inactive) | > 100 µM (inactive) | > 100 µM (inactive) | – | 82.2 µM (inactive) | > 100 µM (inactive) | > 100 µM (inactive) | > 100 µM (inactive) | > 100 µM (inactive) | 94.2 µM (inactive)
CCOC(=O)c1c(NC(=O)c2ccccc2)sc2c1CCCC2 | > 100 µM (inactive) | > 100 µM (inactive) | – | > 100 µM (inactive) | > 100 µM (inactive) | > 100 µM (inactive) | > 100 µM (inactive) | > 100 µM (inactive) | > 100 µM (inactive) | > 100 µM (inactive) | > 100 µM (inactive) | > 100 µM (inactive) | > 100 µM (inactive) | > 100 µM (inactive) | > 100 µM (inactive) | 81.7 µM (inactive) | > 100 µM (inactive) | > 100 µM (inactive) | –
CN1C(=O)C2CCC(=O)N2c2cccnc21 (stereo not drawn) | – | > 100 µM (inactive) | > 100 µM (inactive) | > 100 µM (inactive) | > 100 µM (inactive) | > 100 µM (inactive) | > 100 µM (inactive) | > 100 µM (inactive) | > 100 µM (inactive) | – | > 100 µM (inactive) | > 100 µM (inactive) | – | > 100 µM (inactive) | – | > 100 µM (inactive) | > 100 µM (inactive) | > 100 µM (inactive) | > 100 µM (inactive)
CO[C@@H](c1ccccc1)[C@H](O)[C@@](O)(c1ccccc1)P(=O)(OC)OC | > 100 µM (inactive) | > 100 µM (inactive) | – | > 100 µM (inactive) | > 100 µM (inactive) | > 100 µM (inactive) | > 100 µM (inactive) | > 100 µM (inactive) | > 100 µM (inactive) | > 100 µM (inactive) | > 100 µM (inactive) | 44.4 µM (inactive) | > 100 µM (inactive) | > 100 µM (inactive) | > 100 µM (inactive) | > 100 µM (inactive) | > 100 µM (inactive) | > 100 µM (inactive) | –
O=C(O)c1ccccc1CC1Cc2ccccc2C1=O (stereo not drawn) | > 100 µM (inactive) | > 100 µM (inactive) | > 100 µM (inactive) | > 100 µM (inactive) | > 100 µM (inactive) | > 100 µM (inactive) | > 100 µM (inactive) | > 100 µM (inactive) | > 100 µM (inactive) | > 100 µM (inactive) | > 100 µM (inactive) | > 100 µM (inactive) | – | > 100 µM (inactive) | > 100 µM (inactive) | > 100 µM (inactive) | > 100 µM (inactive) | > 100 µM (inactive) | > 100 µM (inactive)
Cc1cc(C)n(-c2nc3ccccc3c(=O)[nH]2)n1 | > 77.3 µM (inactive) | 11 µM (inactive) | 14.8 µM (inactive) | 1.41 µM (inactive) | 5.42 µM (inactive) | 3.78 µM (inactive) | 11.9 µM (inactive) | 2.1 µM (inactive) | 1.88 µM (inactive) | – | 2.49 µM (inactive) | 1.86 µM (inactive) | 23.2 µM (inactive) | 32.6 µM (inactive) | 3.75 µM (inactive) | 11 µM (inactive) | 33.6 µM (inactive) | 3.28 µM (inactive) | 56.6 µM (inactive)
N#CC(=N)c1ncn(-c2ccc(N)cc2)c1N | > 100 µM (inactive) | > 100 µM (inactive) | > 100 µM (inactive) | > 100 µM (inactive) | > 100 µM (inactive) | > 100 µM (inactive) | > 100 µM (inactive) | > 100 µM (inactive) | > 100 µM (inactive) | – | > 100 µM (inactive) | > 100 µM (inactive) | > 100 µM (inactive) | > 100 µM (inactive) | > 100 µM (inactive) | > 100 µM (inactive) | > 100 µM (inactive) | > 100 µM (inactive) | > 100 µM (inactive)
COC(=O)[C@]1(C)CCC[C@]2(C)[C@H]3CC[C@]4(C(C)C)OO[C@@H](O4)[C@]34O[C@@H]4C[C@H]21 | 5.18 µM (inactive) | 1.76 µM (inactive) | 2.15 µM (inactive) | 0.35 µM (active) | 1.87 µM (inactive) | 2.19 µM (inactive) | 10.8 µM (inactive) | 3.63 µM (inactive) | 1.63 µM (inactive) | 4.28 µM (inactive) | 0.56 µM (active) | 1.79 µM (inactive) | – | 2.22 µM (inactive) | 4.8 µM (inactive) | 4.11 µM (inactive) | 14.9 µM (inactive) | 3.1 µM (inactive) | 1.85 µM (inactive)
Cc1ccc(-c2nc(-c3nccc4ccccc34)oc2-c2ccccc2)cc1 | > 100 µM (inactive) | 68.2 µM (inactive) | – | 20.3 µM (inactive) | 20.6 µM (inactive) | 27.9 µM (inactive) | > 100 µM (inactive) | 68.4 µM (inactive) | 20.2 µM (inactive) | 33.4 µM (inactive) | 92.9 µM (inactive) | 64.9 µM (inactive) | 30.5 µM (inactive) | 38.7 µM (inactive) | 24.9 µM (inactive) | > 100 µM (inactive) | 85.3 µM (inactive) | 88.3 µM (inactive) | > 100 µM (inactive)
O=C1c2ccccc2C(=O)c2c(NC(=O)C3CC3)ccc(NC(=O)C3CC3)c21 | > 100 µM (inactive) | > 100 µM (inactive) | > 100 µM (inactive) | > 100 µM (inactive) | > 100 µM (inactive) | 83.2 µM (inactive) | > 100 µM (inactive) | 33.4 µM (inactive) | > 100 µM (inactive) | – | 58.2 µM (inactive) | > 100 µM (inactive) | > 100 µM (inactive) | > 100 µM (inactive) | – | > 100 µM (inactive) | > 100 µM (inactive) | > 100 µM (inactive) | –
COc1ccc(C2C(C#N)=C(S)N(C3OC(COC(C)=O)C(OC(C)=O)C(OC(C)=O)C3OC(C)=O)C(C)=C2C(C)=O)cc1 (stereo not drawn) | > 100 µM (inactive) | 28.6 µM (inactive) | > 100 µM (inactive) | > 100 µM (inactive) | – | > 100 µM (inactive) | > 100 µM (inactive) | > 100 µM (inactive) | 65 µM (inactive) | 40.5 µM (inactive) | 77.1 µM (inactive) | 66.4 µM (inactive) | – | 46.1 µM (inactive) | 57 µM (inactive) | > 100 µM (inactive) | > 100 µM (inactive) | 42.3 µM (inactive) | 53 µM (inactive)
CCOC(=O)[C@@H]1C[C@@H]1c1ccc(O)c(O)c1 | > 100 µM (inactive) | 16 µM (inactive) | 24.9 µM (inactive) | – | 38.6 µM (inactive) | 16.9 µM (inactive) | 49 µM (inactive) | 59.7 µM (inactive) | 16.3 µM (inactive) | 21.1 µM (inactive) | 42.8 µM (inactive) | 16.9 µM (inactive) | – | 17.1 µM (inactive) | 11 µM (inactive) | 11 µM (inactive) | 39.2 µM (inactive) | 14.3 µM (inactive) | –
CC(C)CC(NC(=O)OCc1ccccc1)C(=O)NCCCCC(NC(=O)C(CCCCNC(=O)C(CC(C)C)NC(=O)OCc1ccccc1)NC(=O)C(CCCCNC(=O)C(CC(C)C)NC(=O)OCc1ccccc1)NC(=O)C(CCCCNC(=O)C(CC(C)C)NC(=O)OCc1ccccc1)NC(=O)OC(C)(C)C)C(=O)O (stereo not drawn) (Boc-K([Leu-Cbz])K([Leu-Cbz])K([Leu-Cbz])K([Leu-Cbz])-OH; configuration not given here) | > 25 µM (inactive) | > 25 µM (inactive) | > 25 µM (inactive) | > 25 µM (inactive) | – | > 25 µM (inactive) | > 25 µM (inactive) | – | > 25 µM (inactive) | – | > 25 µM (inactive) | > 25 µM (inactive) | > 25 µM (inactive) | > 25 µM (inactive) | > 25 µM (inactive) | > 25 µM (inactive) | > 25 µM (inactive) | > 25 µM (inactive) | > 25 µM (inactive)
